Source: patent EP4818330A1, “PHARMACEUTICAL PREPARATION FOR DIAGNOSING AND TREATING ALZHEIMER'S DISEASE” (Shanghai East Hospital Tongji University, priority 2023, dated 2025)
Values joined by “and” are separate entries in the source; they are usually repeats but may differ in a detail not shown here. Equal values may be shown once. Read-outs that look alike come from different tables or passages of the source.

Assays:
[1] = Blood drug concentration in mice after single intraperitoneal administration; format: in vivo, Balb/c strain mice
Protocol: Compound preparation: A compound of Formula I was commercially available, which was dissolved and diluted with a solution comprising 10% DMSO+90% (20% HP-β-CD).
(§1) Research method: first, Balb/c strain mice were administered with a single intraperitoneal injection at a concentration of 2.5 mg/kg, and the content of the compound in serum was detected at 0.25, 0.5, 1, 2, 4, 6, 8 and 24 h after injection; second, brain tissues of mice at 0.5, 4 and 24 h after injection were collected to detect the compound content, so as to evaluate the blood-brain barrier penetration rate.

APP/PS1 transgenic mice = assay: Dendritic spine density of hippocampal neurons in brain slices of AD mice; format: in vivo
Protocol: Thy1-GFP mice are commonly used in neuroscience research. The fluorescence labeling of GFP facilitates convenient observation and tracking of specific cell types, especially neurons. APP/PS1 transgenic mice (an animal model of Alzheimer's disease) were crossed with Thy1-GFP mice. The crossed mice aged 5 months were intraperitoneally injected with a compound solution at a concentration of 2.5 mg/kg for 1 month continuously. Subsequently, the crossed mice aged 6 months were subjected to behavioral test (Morris water maze MWM experiment) to evaluate learning and memory abilities (as shown in FIG. 22).
After the water maze behavioral test, the mice were anesthetized and perfused, and then brain tissue sections were taken. The density of neuronal dendritic spines was observed under a confocal fluorescence microscope using GFP green fluorescence.

primary neurons = assay: Dendritic spine density of neurons in the in vitro AD model (APPsw lentivirus); format: cell-based, mouse
Protocol: The extraction and culture of primary neurons were the same as those hereinabove (toxicity experiment section). Transfection of neurons using plasmid calcium: A neuron culture medium (half medium change) was aspirated and placed in a 37°C water bath for later use, and Neurobasel A was added to a 24-well plate. 500 ng of plasmid DNA was dissolved in 12.5 µl of CaCl2 solution, and then centrifuged. 12.5 µl of HBS was added to the EP tube, and then centrifuged. The mixed solution hereinabove was added to the 24-well plate. The 24-well plate was gently shaken, and then placed back into a 37°C incubator to stand for 90 min. […] On day 6 of in vitro culture (DIV6), the original medium was semi-quantitatively collected, and the lentivirus stock solution (100 µl) was diluted with the original medium (10 ml) at a ratio of […]. […] Primary neurons were transfected with calcium-transformed GFP plasmids on day 4 of in vitro culture to enable the neurons to carry green fluorescence for observing neuronal dendrites. […] After 14 days of in vitro culture, the neurons were fixed with 4% PFA, photographed under a 100× oil immersion lens of a confocal fluorescence microscope, and the dendritic spine density per 10 µm length of the neurons was calculated by observing GFP green fluorescence.

[2] = Drug content in brain tissue after single intraperitoneal administration; format: in vivo, Balb/c strain mice; details: mice; for concentration at 0.5 h: brain, ip
Protocol: as §1

293T cell line = assay: CCK8 cell viability (toxicity) assay in 293T cell line; format: cell-based; details: 293T, 24 h, CCK8, three replicate wells
Source text: The CCK8 cell viability assay (CCK8) was adopted. Its principle is mainly based on the reduction reaction of WST-8 (chemical name: 2-(2-methoxy-4-nitrophenyl)-3-(4-nitrophenyl)-5-(2,4-disulfophenyl)-2H-tetrazolium monosodium salt). In the presence of living cells, WST-8 can be reduced by dehydrogenases in mitochondria to generate a highly water-soluble orange-yellow formazan product. The color intensity is directly proportional to the number of living cells, wherein the quantity of living cells can be indirectly reflected by measuring the absorbance of formazan products (typically at a wavelength of 450 nm). The CCK-8 assay is widely used in cell proliferation assay, cytotoxicity assay and tumor drug sensitivity test.
In in vitro experiments, the compound stock solution was prepared into 10 mM with DMSO and diluted with a culture medium before use. The 293T cell line was used for preliminary concentration screening of the compound, wherein concentration gradients were set as follows: 5 µmol, 10 µmol, 20 µmol, 40 µmol, 80 µmol and 160 µmol. After the cells were treated with the compound for 24 h, the CCK8 detection kit was used, wherein the cell viability was calculated based on the absorbance values detected by a microplate reader. Data processing was performed using GraphPad Prism software to plot the IC50 curve.

[3] = IP 2.5 mg/kg, 0.5 hr, individual animals, 2.5 mg/kg
[4] = IP 2.5 mg/kg, 24 hr, individual animals
[5] = IP 2.5 mg/kg, 24 hr, mean of 3 animals

CCOC(=O)c1[nH]c(C)c(CCC(=O)N2CCCC(C(=O)NCCN3CCCCCC3)C2)c1C (centres unmarked) [compound of Formula I, ETHYL4-[3-(3-{[2-(AZEPAN-1-YL)ETHYL]CARBAMOYL}PIPERIDIN-1-YL)-3-OXOPROPYL]-3, 5-DIMETHYL-1H-PYRROLE-2-CARBOXYLATE]
concentration at 0.25 h ([1]; Balb/c, mouse, serum, ip, 2.5 mg/kg, IP 2.5 mg/kg, 0.25 hr, individual animals, read-out: Concentration (blood)): 369 ng/mL | concentration at 0.25 h ([1]; Balb/c, mouse, serum, ip, 2.5 mg/kg, IP 2.5 mg/kg, 0.25 hr, mean of 3 animals, read-out: Concentration (blood) Mean): 423 ng/mL | concentration at 0.5 h ([1]; Balb/c, mouse, serum, ip, 2.5 mg/kg, IP 2.5 mg/kg, 0.5 hr, individual animals, read-out: Concentration (blood)): 364 ng/mL | concentration at 0.5 h ([1]; Balb/c, mouse, serum, ip, 2.5 mg/kg, IP 2.5 mg/kg, 0.5 hr, mean of 3 animals, read-out: Concentration (blood) Mean): 374 ng/mL | concentration at 1 h ([1]; Balb/c, mouse, serum, ip, 2.5 mg/kg, IP 2.5 mg/kg, 1 hr, mean of 3 animals): 145 ng/mL | concentration at 2 h ([1]; Balb/c, mouse, serum, ip, 2.5 mg/kg, IP 2.5 mg/kg, 2 hr, mean of 3 animals): 36.1 ng/mL | concentration at 4 h ([1]; Balb/c, mouse, serum, ip, 2.5 mg/kg, IP 2.5 mg/kg, 4 hr, mean of 3 animals): 5.14 ng/mL | Concentration (blood) ([1]; IP 2.5 mg/kg, 0.25 hr, individual animals, 2.5 mg/kg): 350 ng/mL and 551 ng/mL | Concentration (blood) [1, 3]: 328 ng/mL and 431 ng/mL | Concentration (blood) ([1]; IP 2.5 mg/kg, 1 hr, individual animals, 2.5 mg/kg): 118 ng/mL and 217 ng/mL and 99.3 ng/mL | Concentration (blood) ([1]; IP 2.5 mg/kg, 2 hr, individual animals, 2.5 mg/kg): 22.7 ng/mL and 63.7 ng/mL and 22.0 ng/mL | Concentration (blood) ([1]; IP 2.5 mg/kg, 4 hr, individual animals, 2.5 mg/kg): 3.63 ng/mL and 8.64 ng/mL and 3.15 ng/mL | Concentration (blood) ([1]; IP 2.5 mg/kg, 6 hr, individual animals): BLOQ (BLOQ = Below LOQ, LOQ = 2.0 ng/mL) | Concentration (blood) Mean ([1]; IP 2.5 mg/kg, 6 hr, mean of 3 animals): BLOQ (BLOQ = Below LOQ, LOQ = 2.0 ng/mL) | Concentration (blood) ([1]; IP 2.5 mg/kg, 8 hr, individual animals): BLOQ (BLOQ = Below LOQ, LOQ = 2.0 ng/mL) | Concentration (blood) Mean ([1]; IP 2.5 mg/kg, 8 hr, mean of 3 animals): BLOQ (BLOQ = Below LOQ, LOQ = 2.0 ng/mL) | Concentration (blood) [1, 4]: BLOQ (BLOQ = Below LOQ, LOQ = 2.0 ng/mL) | Concentration (blood) Mean [1, 5]: BLOQ (BLOQ = Below LOQ, LOQ = 2.0 ng/mL) | blood concentration of the compound ([1]; single IP injection 2.5 mg/kg, after 6 h): undetectable | dendritic spine density of hippocampal neurons (normalized to the control group) (APP/PS1 transgenic mice; APP SW + intervention, IP 2.5 mg/kg for 1 month, brain slices, individual neurons, 2.5 mg/kg): 0.7721 and 0.7284 and 0.6276 and 0.7954 and 0.8425 and 0.7853 | dendritic spine density of hippocampal neurons (APP/PS1 transgenic mice; after compound intervention vs AD mice): increased | number of dendritic spines of neurons (normalized to the control group) (primary neurons; APP SW+intervention, compound 2.5 µmol for 24 h, individual neurons): 0.7841 and 0.7357 and 0.6856 and 0.8651 and 0.6806 and 0.6909 and 0.6481 and 0.7086 | dendritic spine density (primary neurons; in vitro AD model (APPsw virus), after compound intervention, group comparison): increased | concentration at 0.5 h ([2]; Balb/c, mouse, 2.5 mg/kg, IP 2.5 mg/kg, 0.5 hr, individual animals, read-out: Concentration (brain tissue)): 16.8 ng/mL | concentration at 0.5 h ([2]; Balb/c, mouse, 2.5 mg/kg, IP 2.5 mg/kg, 0.5 hr, mean of 3 animals, read-out: Concentration (brain tissue) Mean): 13.8 ng/mL | Kp at 0.5 h ([2]; Balb/c, mouse, IP 2.5 mg/kg, 0.5 hr, brain tissue vs blood): 0.037 | Concentration (brain tissue) [2, 3]: 10.3 ng/mL and 14.4 ng/mL | Concentration (brain tissue) ([2]; IP 2.5 mg/kg, 4 hr, individual animals): BLOQ (BLOQ = Below LOQ, LOQ = 2.0 ng/mL) | Concentration (brain tissue) Mean ([2]; IP 2.5 mg/kg, 4 hr, mean of 3 animals): BLOQ (BLOQ = Below LOQ, LOQ = 2.0 ng/mL) | Concentration (brain tissue) [2, 4]: BLOQ (BLOQ = Below LOQ, LOQ = 2.0 ng/mL) | Concentration (brain tissue) Mean [2, 5]: BLOQ (BLOQ = Below LOQ, LOQ = 2.0 ng/mL) | blood-brain barrier penetration ([2]; brain tissue 0.5 h after single IP injection 2.5 mg/kg): capable of crossing the blood-brain barrier | cell viability (293T cell line; 5 µmol): 106.6% and 109.2% | cell viability (293T cell line; 10 µmol): 109.8% and 96.54% | cell viability (293T cell line; 20 µmol): 95.56% and 93.46% | cell viability (293T cell line; 40 µmol): 86.71% and 78.81% | cell viability (293T cell line; 80 µmol): 24% and 23.36% | cell viability (293T cell line; 160 µmol): 32.01% and 28.26%
